pEC50: −log10 of the molar value. Where a name gives a salt, the structure may show the parent alone. Read-outs that look alike come from different tables or passages of the source.
Experiments:
[1] = molecular target: T1, recombinant guanylate cyclase reporter cell line (Rattus norvegicus, UniProt P19686+P20595); assay: Effect on a recombinant guanylate cyclase reporter cell line; type: cell-based
T1 construct: expressed in transfected cells; host or cells: recombinant reporter cell line
T1 sequence (P20595 1-619): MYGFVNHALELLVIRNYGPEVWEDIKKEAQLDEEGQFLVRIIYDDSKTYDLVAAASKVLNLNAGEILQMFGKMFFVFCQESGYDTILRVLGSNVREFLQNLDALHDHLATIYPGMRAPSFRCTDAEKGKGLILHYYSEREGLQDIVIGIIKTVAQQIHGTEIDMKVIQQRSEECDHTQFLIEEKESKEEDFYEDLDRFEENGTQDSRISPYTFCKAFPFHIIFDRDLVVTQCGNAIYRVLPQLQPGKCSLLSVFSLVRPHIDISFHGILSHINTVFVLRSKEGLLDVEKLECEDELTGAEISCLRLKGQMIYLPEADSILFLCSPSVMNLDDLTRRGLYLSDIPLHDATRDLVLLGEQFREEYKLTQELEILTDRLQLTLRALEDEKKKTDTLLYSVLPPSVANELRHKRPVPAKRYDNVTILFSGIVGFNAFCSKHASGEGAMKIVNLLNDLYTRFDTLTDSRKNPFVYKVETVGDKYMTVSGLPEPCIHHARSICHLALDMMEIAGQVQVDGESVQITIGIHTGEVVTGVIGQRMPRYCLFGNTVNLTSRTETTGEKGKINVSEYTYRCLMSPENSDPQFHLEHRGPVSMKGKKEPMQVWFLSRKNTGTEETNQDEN
T1 sequence (P19686 1-690): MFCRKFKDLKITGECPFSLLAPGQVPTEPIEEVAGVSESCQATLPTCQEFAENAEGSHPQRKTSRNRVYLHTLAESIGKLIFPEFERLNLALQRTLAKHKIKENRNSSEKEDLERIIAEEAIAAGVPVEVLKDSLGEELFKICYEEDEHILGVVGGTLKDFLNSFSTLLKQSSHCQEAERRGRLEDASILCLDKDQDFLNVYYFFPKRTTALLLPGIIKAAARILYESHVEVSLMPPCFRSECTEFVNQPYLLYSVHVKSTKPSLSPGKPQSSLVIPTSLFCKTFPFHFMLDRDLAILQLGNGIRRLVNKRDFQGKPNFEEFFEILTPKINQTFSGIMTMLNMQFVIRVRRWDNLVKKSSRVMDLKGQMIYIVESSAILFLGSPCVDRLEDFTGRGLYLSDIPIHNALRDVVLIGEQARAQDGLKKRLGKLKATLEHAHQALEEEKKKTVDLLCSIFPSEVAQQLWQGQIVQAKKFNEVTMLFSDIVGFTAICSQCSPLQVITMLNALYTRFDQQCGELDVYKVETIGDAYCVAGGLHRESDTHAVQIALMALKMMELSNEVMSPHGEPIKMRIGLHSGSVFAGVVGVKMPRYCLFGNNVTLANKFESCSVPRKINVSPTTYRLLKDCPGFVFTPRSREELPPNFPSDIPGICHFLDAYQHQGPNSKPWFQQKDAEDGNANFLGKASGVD
Procedure: The cellular activity of the compounds according to the invention was determined using a recombinant guanylate cyclase reporter cell line, as described in F. Wunder et al., Anal. Biochem. 339, 104-112 (2005).

[2] = Pharmacokinetic parameters following intravenous and oral administration in rats; type: in vivo, male Wistar rats; settings: in rats as well as in dogs
Procedure: The pharmacokinetic parameters of the compounds according to the invention were determined in male Wistar rats and/or in female beagles and/or in cynomolgus monkeys and/or in male CD-1 mice. Intravenous administration in the case of mice and rats was carried out by means of a species-specific plasma/DMSO formulation, and in the case of dogs and monkeys by means of a water/PEG400/ethanol formulation. In all species, oral administration of the dissolved substance was performed via gavage, based on a water/PEG400/ethanol formulation.
An internal standard (which may also be a chemically unrelated substance) was added to the samples of the compounds of the invention, calibration samples and qualifiers, and there follows protein precipitation by means of acetonitrile in excess. […] The supernatant was analysed by LC-MS/MS using C18 reversed-phase columns and variable mobile phase mixtures. The substances were quantified via the peak heights or areas from extracted ion chromatograms of specific selected ion monitoring experiments.
The plasma concentration/time plots determined were used to calculate the pharmacokinetic parameters such as AUC,Cmax,t½ (terminal half-life), F (bioavailability), MRT (mean residence time) and CL (clearance), by means of a validated pharmacokinetic calculation program. […]

Row | SMILES | pEC50 [1] | MEC (minimum effective concentration) [1] [nM] | MEC (minimum effective concentration) ([1]; hydrochloride) [nM] | lower plasma clearance (CLplasma) in comparison to example 174 in WO 2012/058132 [2]
1 | CC(C)CN1CCN(c2ccc(-c3ccc(Cl)cc3N3CCCC(n4ncc(C(=O)O)c4C(F)(F)F)C3)cc2)CC1 (single isomer, unassigned) [Example 1, 1-[1-{4-Chloro-4′-[4-(2-methylpropyl)piperazin-1-yl][1,1′-biphenyl]-2-yl}piperidin-3-yl]-5-(trifluoromethyl)-1H-pyrazole-4-carboxylic acid] | 7.40 | 6.5 | – | –
2 | CC(C)CN1CCN(c2ccc(-c3ccc(Cl)cc3N3CCCC(n4ncc(C(=O)O)c4C(F)(F)F)C3)cc2)CC1 (single isomer, unassigned) [Example 2, 1-[1-{4-chloro-4′-[4-(2-methylpropyl)piperazin-1-yl][1,1′-biphenyl]-2-yl}piperidin-3-yl]-5-(trifluoromethyl)-1H-pyrazole-4-carboxylic acid hydrochloride] | 7.96 | – | 2.2 | up to 10 times
